pEC50, pIC50: −log10 of the molar value.

T1 sequence (O14744 with tags, fused parts or gaps): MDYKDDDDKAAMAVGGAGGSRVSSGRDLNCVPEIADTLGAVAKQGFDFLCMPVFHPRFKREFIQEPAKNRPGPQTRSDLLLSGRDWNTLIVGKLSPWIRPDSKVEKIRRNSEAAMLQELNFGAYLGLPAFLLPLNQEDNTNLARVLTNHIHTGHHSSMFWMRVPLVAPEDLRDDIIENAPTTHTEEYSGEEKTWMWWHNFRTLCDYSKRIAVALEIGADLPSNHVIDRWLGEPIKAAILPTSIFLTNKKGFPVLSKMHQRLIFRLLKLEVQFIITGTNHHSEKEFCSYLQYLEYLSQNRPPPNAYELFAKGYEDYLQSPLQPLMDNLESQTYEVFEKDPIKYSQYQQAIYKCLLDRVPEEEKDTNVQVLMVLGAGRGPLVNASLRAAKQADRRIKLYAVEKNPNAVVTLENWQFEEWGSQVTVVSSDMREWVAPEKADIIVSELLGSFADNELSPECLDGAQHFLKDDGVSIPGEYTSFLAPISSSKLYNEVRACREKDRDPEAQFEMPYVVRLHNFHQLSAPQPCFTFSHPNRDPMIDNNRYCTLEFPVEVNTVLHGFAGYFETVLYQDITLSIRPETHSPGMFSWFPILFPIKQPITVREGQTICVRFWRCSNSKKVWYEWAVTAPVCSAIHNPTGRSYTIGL
T1 sequence (Q9BQA1 with tags, fused parts or gaps partner limits assumed): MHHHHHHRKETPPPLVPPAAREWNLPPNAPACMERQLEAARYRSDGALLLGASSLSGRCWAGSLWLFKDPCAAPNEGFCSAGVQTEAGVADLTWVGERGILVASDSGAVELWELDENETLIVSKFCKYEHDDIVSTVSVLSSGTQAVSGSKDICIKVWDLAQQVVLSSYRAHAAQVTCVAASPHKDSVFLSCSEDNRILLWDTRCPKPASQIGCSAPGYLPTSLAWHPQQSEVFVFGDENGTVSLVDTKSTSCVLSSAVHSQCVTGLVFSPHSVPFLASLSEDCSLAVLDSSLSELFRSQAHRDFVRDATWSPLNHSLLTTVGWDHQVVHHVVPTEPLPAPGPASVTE

The first test deals with Z-138 cells. The test can be described thus: Z-138 Proliferation Assay (Cell Titer Glo, 5 days). It counts as cell-based. The note with it: Homo sapiens, Table D-2. From the text: Z-138 Proliferation Assay
Z-138 suspension cells were purchased from ATCC (American Type Culture Collection, Manassas, Va.). RPMI/Glutamax medium, penicillin-streptomycin, heat inactivated fetal bovine serum were purchased from Life Technologies, Grand Island, N.Y., USA. V-bottom polypropylene 384-well plates were purchased from Greiner Bio-One, Monroe, N.C., USA. Cell culture 384-well white opaque plates were purchased from Perkin Elmer, Waltham, Mass., USA. Cell-Titer Gb® was purchased from Promega Corporation, Madison, Wis., USA. SpectraMax M5 plate reader was purchased from Molecular Devices LLC, Sunnyvale, Calif., USA.
Z-138 suspension cells were maintained in growth medium (RPMI 1640 supplemented with 10% v/v heat inactivated fetal bovine serum and cultured at 37° C. under 5% CO2. Under assay conditions, cells were incubated in assay medium (RPMI 1640 supplemented with 10% v/v heat inactivated fetal bovine serum and 100 units/mL penicillin-streptomycin) at 37° C. under 5% CO2.
For the assessment of the effect of compounds on the proliferation of the Z-138 cell line, exponentially growing cells were plated in 384-well white opaque plates at a density of 10,000 cells/ml in a final volume of 50 μl of assay medium. A compound source plate was prepared by performing triplicate nine-point 3-fold serial dilutions in DMSO, beginning at 10 mM (final top concentration of compound in the assay was 20 μM and the DMSO was 0.2%). A 100 nL aliquot from the compound stock plate was added to its respective well in the cell plate. […] After addition of compounds, assay plates were incubated for 5 days at 37° C., 5% CO2, relative humidity >90%.
Cell viability was measured by quantitation of ATP present in the cell cultures, adding 35 μl of Cell Titer Glo® reagent to the cell plates. Luminescence was read in the SpectraMax M5 microplate reader. The concentration of compound inhibiting cell viability by 50% was determined using a 4-parametric fit of the normalized dose response curves.
Compound `O[C@H](COc1cccc(CNC2CCCC2)c1)CN1CCc2ccccc2C1` [Compound D22] had a negative-log EC50 (pEC50) of 4.40 to 5.00.

The next test concerns the target T1, PRMT5/MEP50 (Homo sapiens, UniProt O14744).
T1 construct: Expressed full-length human Flag-PRMT5/6His-MeP50 protein complex was purified; made in house; host or cells: Spodoptera frugiperda (SF9) insect cells, baculovirus (pDEST8)
The test can be described thus: PRMT5 Biochemical Assay (PRMT5/MEP50 enzyme assay on peptide substrate, 3H-SAM Flashplate). The following applies: Table D-2; read-out: Biochemical IC50.
In the case of `COc1cccc2c1CCN(CC(O)COc1cccc(-c3ccc4ncn(C)c4c3)c1)C2` (centres unmarked) [Compound D142], the negative logarithm of the IC50 (pIC50) is 5.00 to 6.00.

On to `Cn1cnc2ccc(-c3cccc(OCC(O)CN4CCc5ccccc5C4Cc4ccccc4)c3)cc21` (centres unmarked) [Compound D143], for which the negative logarithm of the IC50 (pIC50) was less than 4.40.

Turning to `CCOC(=O)CC1c2ccccc2CCN1CC(O)COc1cccc(-c2ccc3ncn(C)c3c2)c1` (centres unmarked) [Compound D144], the pIC50 is 5.00 to 6.00.

In the case of `COc1cc2c(cc1OC)CN(CC(O)COc1cccc(-c3ccc4ncn(C)c4c3)c1)CC2` (centres unmarked) [Compound D146], the pIC50 was less than 4.40.

As to `COc1ncc(-c2cccc(OCC(O)CN3CCc4ccccc4C3)c2)cn1` (centres unmarked) [Compound D153], the pIC50 was 5.00 to 6.00.

`OC(COc1cccc(-c2cnccn2)c1)CN1CCc2ccccc2C1` (centres unmarked) [Compound D155]: the pIC50 was 5.00 to 6.00.

`O=C(Nc1cccc(OCC(O)CN2CCc3ccccc3C2)c1)c1cnco1` (centres unmarked) [Compound D158]: the pIC50 is 5.00 to 6.00.

As for `O=C(Nc1cccc(OCC(O)CN2CCc3ccccc3C2)c1)c1cocn1` (centres unmarked) [Compound D159], the pIC50 is 5.00 to 6.00.

Turning to `Cn1cnc2nc(-c3cccc(OCC(O)CN4CCc5ccccc5C4)c3)ncc21` (centres unmarked) [Compound D165], the pIC50 was 5.00 to 6.00.

Turning to `OC(COC1CCN(c2ccccc2)C1)CN1CCc2ccccc2C1` (centres unmarked) [Compound D175], the negative logarithm of the IC50 (pIC50) was 5.00 to 6.00.

On to `COc1ccc2c(c1)CN(CC(O)COc1cccc(-c3ccc4ncn(C)c4c3)c1)CC2` (centres unmarked) [Compound D177], for which the pIC50 is 4.40 to 5.00.

Regarding `Cn1cnc2ccc(-c3cccc(OCC(O)CN4CCc5ccccc5C4COc4ccccc4)c3)cc21` (centres unmarked) [Compound D178], the pIC50 is less than 4.40.

For the compound `O=C(c1cncc(-c2cccc(OCC(O)CN3CCc4ccccc4C3)c2)c1)N1CCCC1` (centres unmarked) [Compound D181], the pIC50 is 5.00 to 6.00.

In the case of `O=C(Nc1cccc(OCC(O)CN2CCc3ccccc3C2)c1)c1ccnnc1` (centres unmarked) [Compound D184], the pIC50 is 5.00 to 6.00.

As for `OC(COc1cccc(-c2ccncc2F)c1)CN1CCc2ccccc2C1` (centres unmarked) [Compound D190], the pIC50 was 5.00 to 6.00.

`Cc1cccc2c1CN(CC(O)COc1cccc(-c3ccc4ncn(C)c4c3)c1)CC2` (centres unmarked) [Compound D192]: the negative-log IC50 (pIC50) was 5.00 to 6.00.

On to `CCOC(=O)C1c2ccccc2CCN1CC(O)COc1cccc(-c2ccc3ncn(C)c3c2)c1` (centres unmarked) [Compound D193], for which the negative-log IC50 (pIC50) is less than 4.40.

Regarding `OC(COc1cccc(N2CCc3[nH]nc(-c4ccccc4)c3C2)c1)CN1CCc2ccccc2C1` (centres unmarked) [Compound D194], the pIC50 is 5.00 to 6.00.

On to `Cn1cncc1C(=O)Nc1cccc(OCC(O)CN2CCc3ccccc3C2)c1` (centres unmarked) [Compound D195], for which the pIC50 is 5.00 to 6.00.

For the compound `CN(C(=O)c1cnco1)c1cccc(OCC(O)CN2CCc3ccccc3C2)c1` (centres unmarked) [Compound D196], the negative logarithm of the IC50 (pIC50) is 5.00 to 6.00.

As to `CN(C(=O)c1cn(C)cn1)c1cccc(OCC(O)CN2CCc3ccccc3C2)c1` (centres unmarked) [Compound D197], the pIC50 is 5.00 to 6.00.

Turning to `CN(C(=O)c1cocn1)c1cccc(OCC(O)CN2CCc3ccccc3C2)c1` (centres unmarked) [Compound D198], the pIC50 was 4.40 to 5.00.

Turning to `Cn1cnc2ccc(-c3cccc(OCC(O)CN4CCc5ccccc5C4CC(N)=O)c3)cc21` (centres unmarked) [Compound D202], the pIC50 was less than 4.40.

Consider `CN(C(=O)c1cncn1C)c1cccc(OCC(O)CN2CCc3ccccc3C2)c1` (centres unmarked) [Compound D203], for which the negative logarithm of the IC50 (pIC50) was 5.00 to 6.00.

Take `CN(C(=O)c1cccnc1)c1cccc(OCC(O)CN2CCc3ccccc3C2)c1` (centres unmarked) [Compound D204]: the pIC50 was 5.00 to 6.00.

Turning to `CNC(=O)Cn1ccc2cnc(-c3cccc(OCC(O)CN4CCc5ccccc5C4)c3)nc21` (centres unmarked) [Compound D206], the pIC50 is 5.00 to 6.00.

For the compound `Cn1cnc2ccc(-c3cccc(OCC(O)CN4CCc5ccccc5C4(C)C)c3)cc21` (centres unmarked) [Compound D211], the negative-log IC50 (pIC50) was 5.00 to 6.00.

For the compound `Cc1ccc2c(c1)CN(CC(O)COc1cccc(-c3ccc4ncn(C)c4c3)c1)CC2` (centres unmarked) [Compound D212], the negative logarithm of the IC50 (pIC50) is 5.00 to 6.00.

Consider `Cc1cccc2c1CCN(CC(O)COc1cccc(-c3ccc4ncn(C)c4c3)c1)C2` (centres unmarked) [Compound D213], for which the pIC50 was 5.00 to 6.00.

Turning to `Cn1cnc2ccc(-c3cccc(OCC(O)CN4CCc5ccc(Cl)cc5C4)c3)cc21` (centres unmarked) [Compound D214], the negative logarithm of the IC50 (pIC50) was 5.00 to 6.00.

In the case of `Cn1cnc2ccc(-c3cccc(OCC(O)CN4CCc5c(Cl)cccc5C4)c3)cc21` (centres unmarked) [Compound D215], the pIC50 was 5.00 to 6.00.

As to `Cn1cnc2ccc(-c3cccc(OCC(O)CN4CCc5ccccc5C4=O)c3)cc21` (centres unmarked) [Compound D225], the pIC50 was less than 4.40.

Turning to `Cn1ccc2ccc(-c3ccnc(NCC(O)CN4CCc5ccccc5C4)c3)cc21` (centres unmarked) [Compound D227], the pIC50 is greater than 7.00.

For the compound `CC(=O)N1CCC(n2cnc3ccc(-c4cccc(OCC(O)CN5CCc6ccccc6C5)c4)cc32)CC1` (centres unmarked) [Compound D228], the pIC50 was 6.00 to 7.00.

As to `OC(CNc1cc(-c2ccc3ncn(C4CNC4)c3c2)ccn1)CN1CCc2ccccc2C1` (centres unmarked) [Compound D229], the pIC50 was greater than 7.00.

Take `CN1CC(n2cnc3ccc(-c4ccnc(NCC(O)CN5CCc6ccccc6C5)c4)cc32)C1` (centres unmarked) [Compound D230]: the pIC50 was greater than 7.00.

For `O=C(Cn1ccc2cnc(-c3cccc(OCC(O)CN4CCc5ccccc5C4)c3)nc21)N1CCCC1` (centres unmarked) [Compound D231], the negative-log IC50 (pIC50) was 6.00 to 7.00.

Take `O=C(Cn1ccc2cnc(-c3cccc(OCC(O)CN4CCc5ccccc5C4)c3)nc21)N1CCCCC1` (centres unmarked) [Compound D232]: the pIC50 was 6.00 to 7.00.

As for `O=C(Nc1ccccn1)c1cccc(OCC(O)CN2CCc3ccccc3C2)c1` (centres unmarked) [Compound D267], the pIC50 is 6.00 to 7.00.

`O=C(Nc1cccnc1)c1cccc(OCC(O)CN2CCc3ccccc3C2)c1` (centres unmarked) [Compound D268]: the negative logarithm of the IC50 (pIC50) was 5.00 to 6.00.

Turning to `O=C(Nc1cc[nH]n1)c1cccc(OCC(O)CN2CCc3ccccc3C2)c1` (centres unmarked) [Compound D274], the pIC50 was 5.00 to 6.00.

In the case of `Cn1cnc2ccc(-c3cccc(OCC(O)CN4Cc5ccccc5C(F)(F)C4)c3)cc21` (centres unmarked) [Compound D277], the negative logarithm of the IC50 (pIC50) is less than 5.00.

In the case of `OC(COCc1ccc(Cl)cc1)CN1CCc2ccccc2C1` (centres unmarked) [Compound D278], the negative-log IC50 (pIC50) is 5.00 to 6.00.

As to `COc1c(COCC(O)CN2CCc3ccccc3C2)ccc2ccccc12` (centres unmarked) [Compound D279], the pIC50 is 5.00 to 6.00.

As to `OC(COCc1ccc(Cl)cc1Cl)CN1CCc2ccccc2C1` (centres unmarked) [Compound D281], the pIC50 is 5.00 to 6.00.

Regarding `OC(COCc1ccccn1)CN1CCc2ccccc2C1` (centres unmarked) [Compound D282], the negative-log IC50 (pIC50) is 4.40 to 5.00.

In the case of `OC(COCc1cccnc1)CN1CCc2ccccc2C1` (centres unmarked) [Compound D283], the negative logarithm of the IC50 (pIC50) was 4.40 to 5.00.

Consider `OC(COCc1ccncc1)CN1CCc2ccccc2C1` (centres unmarked) [Compound D284], for which the pIC50 is 4.40 to 5.00.

In the case of `CC(C)(C)OC(=O)N1CCC(OCC(O)CN2CCc3ccccc3C2)C1` (centres unmarked) [Compound D287], the pIC50 is 5.00 to 6.00.

Regarding `OC(COC1CCCC1)CN1CCc2ccccc2C1` (centres unmarked) [Compound D302], the pIC50 was 5.00 to 6.00.

The same test, now with this note: Table E-2; read-out: Biochemical IC50.
In the case of `Nc1cccc(C(=O)NCC(O)CN2Cc3ccccc3C2)c1` (centres unmarked) [Compound E2.], the pIC50 is 5.00 to 6.00.

`O=C(COc1cccc2cccnc12)NC[C@H](O)CN1Cc2ccccc2C1` [Compound E4.]: the negative-log IC50 (pIC50) was greater than 7.00.

Turning to `C[C@@H](Oc1cccc2cccnc12)C(=O)NC[C@H](O)CN1Cc2ccccc2C1` [Compound E5.], the pIC50 is greater than 7.00.

Consider `C[C@H](Oc1cccc2cccnc12)C(=O)NC[C@@H](O)CN1Cc2ccccc2C1` [Compound E6.], for which the negative-log IC50 (pIC50) was less than 5.00.

Take `O=C(COc1ccccc1-c1cc[nH]n1)NCC(O)CN1Cc2ccccc2C1` (centres unmarked) [Compound E7.]: the negative logarithm of the IC50 (pIC50) was 6.00 to 7.00.

With `Cn1cnc2ccc(-c3cccc(OCC(O)CN4Cc5ccccc5C4)c3)cc21` (centres unmarked) [Compound E9.], the pIC50 is 5.00 to 6.00.

On to `CC(C)(C)OC(=O)Nc1cccc(C(=O)NCC(O)CN2Cc3ccccc3C2)c1` (centres unmarked) [Compound E11.], for which the negative logarithm of the IC50 (pIC50) was 6.00 to 7.00.

Take `CS(=O)(=O)c1ccccc1OCC(=O)NCC(O)CN1Cc2ccccc2C1` (centres unmarked) [Compound E12.]: the pIC50 is 6.00 to 7.00.

Turning to `O=C(NCC(O)CN1Cc2ccccc2C1)c1cccc(-c2ccccn2)c1` (centres unmarked) [Compound E13.], the pIC50 is 6.00 to 7.00.

For `CN(C)S(=O)(=O)c1ccccc1OCC(=O)NCC(O)CN1Cc2ccccc2C1` (centres unmarked) [Compound E15.], the pIC50 was greater than 7.00.

Regarding `O=C(COc1cccc2cccnc12)NC[C@@H](O)CN1Cc2ccccc2C1` [Compound E16.], the pIC50 is 5.00 to 6.00.

In the case of `COc1ccc(Cn2cnc3ccc(-c4ccc(OCC(O)CN5Cc6ccccc6C5)cc4)cc32)cc1` (centres unmarked) [Compound E18.], the pIC50 was 5.00 to 6.00.

In the case of `O=C(COc1cccc2cccnc12)NCC(O)CN1Cc2ccccc2C1` (centres unmarked) [Compound E19.], the negative logarithm of the IC50 (pIC50) was 6.00 to 7.00.

Take `OC(COc1cccc(CNC2CCCC2)c1)CN1Cc2ccccc2C1` (centres unmarked) [Compound E20.]: the pIC50 was 5.00 to 6.00.

(Values after US20150344457A1, “METHODS OF INHIBITING PRMT5” (EPIZYME, INC., priority 2012, published 2015).)
